Test results reported in patent publication US4521335A, “Aglycone and pseudo-aglycones of the AAD 216 antibiotics” (SmithKline Beckman Corporation, priority 1984, dated 1985).
In brackets after ≈: the same amount, converted by molar mass.

What was measured:
[1] = system: Staph. aureus SK & F 2777; assay: MIC, standard microtiter assay; assay type: cell-based; conditions: Staphylococcus aureus
[2] = system: Staph. aureus SK & F 674; assay: MIC, standard microtiter assay; assay type: cell-based; conditions: Staphylococcus aureus
[3] = system: Staph. epidermidis SK & F 651; assay: MIC, standard microtiter assay; assay type: cell-based; conditions: Staphylococcus epidermidis
[4] = system: Staph. aureus SK & F 2677; assay: MIC, standard microtiter assay; assay type: cell-based; conditions: Staphylococcus aureus
[5] = system: Staph. aureus SK & F 2776; assay: MIC, standard microtiter assay; assay type: cell-based; conditions: Staphylococcus aureus
[6] = system: Staph. aureus SK & F 910; assay: MIC, standard microtiter assay; assay type: cell-based
[7] = system: Staph. aureus SK & F 2597; assay: MIC, standard microtiter assay; assay type: cell-based; conditions: Staphylococcus aureus
[8] = system: Staph. aureus SK & F 674-P6-mutant; assay: microbe, parasite or virus in culture; assay type: cell-based; conditions: Staphylococcus aureus
[9] = system: B. thetaiotamicron SK & F 3089; assay: MIC, standard microtiter assay; assay type: cell-based
[10] = system: Staph. aureus SK & F 2590; assay: MIC, standard microtiter assay; assay type: cell-based; conditions: Staphylococcus aureus
[11] = system: Staph. aureus SK & F 2666; assay: MIC, standard microtiter assay; assay type: cell-based; conditions: Staphylococcus aureus
[12] = system: Staph. aureus SK & F 2595; assay: MIC, standard microtiter assay; assay type: cell-based; conditions: Staphylococcus aureus
[13] = system: Staph. aureus SK & F 209P; assay: MIC, standard microtiter assay; assay type: cell-based; conditions: Staphylococcus aureus
[14] = system: Staph. aureus SK & F 2613; assay: MIC, standard microtiter assay; assay type: cell-based; conditions: Staphylococcus aureus
[15] = system: Staph. aureus SK & F 2615; assay: MIC, standard microtiter assay; assay type: cell-based; conditions: Staphylococcus aureus
[16] = system: E. coli 12140 (SK & F 809); assay: MIC, standard microtiter assay; assay type: cell-based; conditions: Escherichia coli
[17] = system: C. difficile SK & F 3096; assay: MIC, standard microtiter assay; assay type: cell-based; conditions: Clostridioides difficile
[18] = system: Clostridium difficile SK & F 3062; assay: MIC, standard microtiter assay; assay type: cell-based; conditions: Clostridioides difficile
[19] = system: Strep. faecalis SK & F 34358; assay: MIC, standard microtiter assay; assay type: cell-based; conditions: Enterococcus faecalis
[20] = system: Staph. aureus HH127; assay: MIC, standard microtiter assay; assay type: cell-based
[21] = system: Staph. aureus SK & F 2616; assay: MIC, standard microtiter assay; assay type: cell-based; conditions: Staphylococcus aureus
[22] = system: Staph. aureus SK & F 2736; assay: MIC, standard microtiter assay; assay type: cell-based; conditions: Staphylococcus aureus
[23] = system: Staph. aureus SK & F 2591; assay: MIC, standard microtiter assay; assay type: cell-based; conditions: Staphylococcus aureus
[24] = system: Staph. aureus SK & F 2594; assay: MIC, standard microtiter assay; assay type: cell-based; conditions: Staphylococcus aureus
[25] = system: Providencia SK & F 276; assay: MIC, standard microtiter assay; assay type: cell-based
[26] = system: Staph. epidermidis SK & F 2479; assay: MIC, standard microtiter assay; assay type: cell-based; conditions: Staphylococcus epidermidis
[27] = system: Staph. aureus SK & F 675; assay: MIC, standard microtiter assay; assay type: cell-based; conditions: Staphylococcus aureus
[28] = system: inoculum (rumen cannula filtrate); assay: rumen in vitro model, growth promotant activity; conditions: experiment III; for GLU (% Control): glucose; for LYS (% Control): lysine; for Propionate % (% Control): propionate as percentage of total VFA; for VFA (% Control): total volatile fatty acids
[29] = system: Staph. aureus SK & F 2592; assay: MIC, standard microtiter assay; assay type: cell-based; conditions: Staphylococcus aureus
[30] = system: Clostridium perfringens MCP-1; assay: microbe, parasite or virus in culture; assay type: cell-based; conditions: MCP1
[31] = system: Staph. aureus SK & F 2621; assay: MIC, standard microtiter assay; assay type: cell-based; conditions: Staphylococcus aureus
[32] = system: Staph. aureus SK & F 2612; assay: MIC, standard microtiter assay; assay type: cell-based; conditions: Staphylococcus aureus
[33] = system: Enterobacter cloacae HH31254; assay: MIC, standard microtiter assay; assay type: cell-based

CN[C@H](CC(C)C)C(=O)N[C@H]1C(=O)N[C@@H](CC(N)=O)C(=O)N[C@H]2C(=O)N[C@H]3C(=O)N[C@H](C(=O)N[C@H](C(=O)O)c4cc(O)cc(O)c4-c4cc3ccc4O)[C@H](O)c3ccc(c(Cl)c3)Oc3cc2cc(c3O[C@@H]2O[C@H](CO)[C@@H](O)[C@H](O)[C@H]2O[C@H]2C[C@](C)(N)[C@H](O)[C@H](C)O2)Oc2ccc(cc2Cl)[C@H]1O [Vancomycin, vancomycin]
MIC [1]: 0.8 µg/mL (≈ 0.552 µM)
MIC [2]: 1.6 µg/mL (≈ 1.1 µM)
MIC ([3]; Table A, Staph. epidermidis SK & F 651): 1.6 µg/mL (≈ 1.1 µM)
MIC ([3]; Table E, Staph. epidermidis SK & F 651, first entry): 3.1 µg/mL (≈ 2.14 µM)
MIC ([3]; Table E, Staph. epidermidis SK & F 651, second entry): 3.1 µg/mL (≈ 2.14 µM)
MIC [4]: 1.6 µg/mL (≈ 1.1 µM)
MIC [5]: 1.6 µg/mL (≈ 1.1 µM)
MIC ([6]; Staphylococcus aureus): 1.6 µg/mL (≈ 1.1 µM)
MIC ([6]; Table A, Staph. aureus SK & F 910): 1.6 µg/mL (≈ 1.1 µM)
MIC ([6]; Table E, Staph. aureus SK & F 910): 1.6 µg/mL (≈ 1.1 µM)
MIC [7]: 3.1 µg/mL (≈ 2.14 µM)
MIC [8]: 100 µg/mL (≈ 69 µM)
MIC [9]: 32 µg/mL (≈ 22.1 µM)
MIC [10]: 1.6 µg/mL (≈ 1.1 µM)
MIC [11]: 1.6 µg/mL (≈ 1.1 µM)
MIC [12]: 1.6 µg/mL (≈ 1.1 µM)
MIC [13]: 1.6 µg/mL (≈ 1.1 µM)
MIC [14]: 1.6 µg/mL (≈ 1.1 µM)
MIC [15]: 3.1 µg/mL (≈ 2.14 µM)
MIC [16]: 100 µg/mL (≈ 69 µM)
MIC [17]: 2 µg/mL (≈ 1.38 µM)
MIC ([18]; Table D, Anaerobes, Clostridium difficile SK & F 3062): 2 µg/mL (≈ 1.38 µM)
MIC ([18]; Table F, C. difficile SK & F 3062): 0.5 µg/mL (≈ 0.345 µM)
MIC [19]: 3.1 µg/mL (≈ 2.14 µM)
MIC ([20]; Staphylococcus aureus, HH127): 1.6 µg/mL (≈ 1.1 µM)
MIC ([20]; Table A, Staph. aureus HH127): 1.6 µg/mL (≈ 1.1 µM)
MIC ([20]; Table E, Staph. aureus HH127): 1.6 µg/mL (≈ 1.1 µM)
MIC [21]: 0.8 µg/mL (≈ 0.552 µM)
MIC [22]: 1.6 µg/mL (≈ 1.1 µM)
MIC [23]: 1.6 µg/mL (≈ 1.1 µM)
MIC [24]: 1.6 µg/mL (≈ 1.1 µM)
MIC [25]: > 100 µg/mL
MIC ([26]; Table A): 1.6 µg/mL (≈ 1.1 µM)
MIC ([26]; Table E): 3.1 µg/mL (≈ 2.14 µM)
MIC ([27]; Table C, Methicillin Resistant): 1.6 µg/mL (≈ 1.1 µM)
MIC ([27]; Table E): 3.1 µg/mL (≈ 2.14 µM)
GLU (% Control) ([28]; 0.5 ppm): 17 % Control
LYS (% Control) ([28]; 0.5 ppm): 83 % Control
Propionate % (% Control) ([28]; 0.5 ppm): 105 % Control
VFA (% Control) ([28]; 0.5 ppm): 97 % Control
GLU (% Control) ([28]; 5.0 ppm): 165 % Control
LYS (% Control) ([28]; 5.0 ppm): 85 % Control
Propionate % (% Control) ([28]; 5.0 ppm): 130 % Control
VFA (% Control) ([28]; 5.0 ppm): 108 % Control
GLU (% Control) ([28]; 50.0 ppm): 189 % Control
LYS (% Control) ([28]; 50.0 ppm): 97 % Control
Propionate % (% Control) ([28]; 50.0 ppm): 127 % Control
VFA (% Control) ([28]; 50.0 ppm): 107 % Control
MIC [29]: 3.1 µg/mL (≈ 2.14 µM)
MIC [30]: 0.5 µg/mL (≈ 0.345 µM)
MIC [31]: 1.6 µg/mL (≈ 1.1 µM)
MIC [32]: 1.6 µg/mL (≈ 1.1 µM)
MIC [33]: > 100 µg/mL
